US20040092566A1, “Celecoxib prodrug” (priority 2002, published 2004)

Columns and labels:
COX-1 = COX-1 (Homo sapiens, UniProt P23219); details: background statement; cited from earlier work
Chain of COX-1 (P23219 24-599): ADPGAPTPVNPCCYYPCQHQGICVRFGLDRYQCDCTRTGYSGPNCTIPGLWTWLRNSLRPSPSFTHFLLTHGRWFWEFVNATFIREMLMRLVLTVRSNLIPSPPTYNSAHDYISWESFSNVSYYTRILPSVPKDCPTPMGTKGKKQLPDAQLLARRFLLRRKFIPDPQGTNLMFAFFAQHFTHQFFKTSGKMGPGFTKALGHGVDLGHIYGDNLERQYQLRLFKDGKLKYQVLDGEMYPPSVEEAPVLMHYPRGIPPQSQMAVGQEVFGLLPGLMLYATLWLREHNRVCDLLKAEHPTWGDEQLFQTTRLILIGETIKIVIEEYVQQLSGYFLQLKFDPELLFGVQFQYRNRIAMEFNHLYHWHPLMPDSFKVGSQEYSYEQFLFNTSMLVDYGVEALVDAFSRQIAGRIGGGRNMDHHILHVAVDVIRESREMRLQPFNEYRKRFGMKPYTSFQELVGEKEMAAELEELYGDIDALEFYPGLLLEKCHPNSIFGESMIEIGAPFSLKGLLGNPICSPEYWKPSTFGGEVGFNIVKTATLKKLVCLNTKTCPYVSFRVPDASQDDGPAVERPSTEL

| melting point | SMILES | in vitro inhibitory activity against COX-1 (COX-1) |
| --- | --- | --- |
| 88.3 to 96.7 °C | CCC(=O)NS(=O)(=O)c1ccc(-n2nc(C(F)(F)F)cc2-c2ccc(C)cc2)cc1 [compound (V), N-[[4-[5-(4-methylphenyl)-3-(trifluoromethyl)-1H-pyrazol-1-yl]phenyl]-sulfonyl]propanamide] |  |
| > 300 °C | CCC(=O)[N-]S(=O)(=O)c1ccc(-n2nc(C(F)(F)F)cc2-c2ccc(C)cc2)cc1.[Na+] [compound Z, 4-[5-(4-methylphenyl)-3-(trifluoromethyl)-1H-pyrazol-1-yl]-N-propionylbenzenesulfonamide, sodium salt] |  |
|  | CCC(=O)NS(=O)(=O)c1ccc(-c2c(-c3ccccc3)noc2C)cc1 [Parecoxib] | weak |
|  | Cc1onc(-c2ccccc2)c1-c1ccc(S(N)(=O)=O)cc1 [valdecoxib] | weak |
